SMILES strings stand for the structures.

Type in all cases: cell-based
The test system of series [1] is recombinant adenovirus (GFP tagging). In words: antiviral activity against recombinant adenovirus (GFP fluorescence intensity) in HEK293A cells. As to conditions: for inhibition at 50 µM: unidentified adenovirus, HEK293-A, 72 h, read-out: virus inhibitory activity. As for the experimental part:
(§1) After dispensing HEK293A cells at 10,000 cells/well on a 96-well plate and stabilizing for 24 hours, the recombinant adenovirus (GFP tagging, MOI=0.5) prepared in Example and 18 compounds listed in Table 1 below (50 μM)) were treated and incubated for 24, 48 and 72 hours, the GFP fluorescence intensity (Excitation=485 nm, Emission=528 nm) was observed.

A further series relates to HEK293A cells. As to the kind of experiment: cell death / cytotoxicity in compound-treated HEK293A cells. As to conditions: 50 μM compound, after 72 hours of treatment.
Series [2] concerns Herpes simplex virus (HSV). In words: antiviral activity against herpes simplex virus (HSV), same manner as the adenovirus test. The conditions noted are these: 50 μM, after 24 hours, 48 hours and 72 hours (FIG. 14). The protocol: as §1
The experiment was performed in the same manner as in the previous experiment, except that the virus type was changed to HSV and the antiviral activity was examined.

For series [3], the system named is COVID-19 virus (COVID19 recombinant adenovirus). In words: COVID19 antibody-antigen polymerization reaction on combination treatment with ECCA A (Cyto X cell viability).

Consider `C=C(C)[C@@H]1CC[C@]2(C(=O)O)CC[C@]3(C)[C@H](CC[C@@H]4[C@@]5(C)C[C@@H](OC(=O)/C=C/c6ccc(O)cc6)[C@H](O)C(C)(C)[C@@H]5CC[C@]43C)[C@@H]12` [Compound C4, 2-O-E-p-coumaroyl alphitolic acid], for which the “virus inhibitory activity (in words)” value in series [1] (50 μM compound, HEK293A cells, recombinant adenovirus MOI=0.5) was “excellent virus inhibitory activity”. Further, the cell death with HEK293A cells was 100%.

`C=C(C)[C@@H]1CC[C@]2(C(=O)O)CC[C@]3(C)[C@H](CC[C@@H]4[C@@]5(C)CC[C@H](O)C(C)(C)[C@@H]5CC[C@]43C)[C@@H]12` [Compound C10, ECCA A]: in series [1] (50 μM, after 24 hours, 48 hours and 72 hours (FIG. 13)), the “antiviral activity on adenovirus, compared among C2, C6, C8 and C10” value is given as “most excellent”. Besides, the inhibition at 50 µM in series [1] was not below 50%. Also, the “antiviral activity on HSV” value in series [2] is reported as “most excellent”. Further, in series [3], the antigen-antibody polymerization reaction entry was “effective antigen-antibody polymerization reaction was confirmed” and the “binding to the antigen fusion protein” value is recorded as “excellent”.

Take `C=C(C)[C@@H]1CC[C@]2(C(=O)O)CC[C@]3(C)[C@H](CC[C@@H]4[C@@]5(C)[C@@H](C(=O)O)[C@H](O)C(C)(C)[C@@H]5CC[C@]43C)[C@@H]12` [Compound C2, Ceanothic acid]: the inhibition at 50 µM in series [1] was not below 50%.

For the origin of these results see US20220265814A1, “R[…] FOR CORONA VIRUS DISEASE 19 AND COMBINATION THERAPY USING THE SAME” (priority 2021, published 2022).
